# Measured values reported in ChEMBL document CHEMBL1150312, “The SAR studies of novel CB2 selective agonists, benzimidazolone derivatives” (Bioorg Med Chem Lett, 2008).
# Assay: Bioavailability in rat at 3 mg/kg, po
# Assay type: ADME, organism-based
# Conditions: in vivo
row,Structure (SMILES),bioavailability [%]
1,CC(C)(O)CCn1c(=O)n(C(=O)N[C@H](C(N)=O)C(C)(C)C)c2ccccc21,33

# Assay: Lipophilicity, log D at pH 7.4
# Assay type: physicochemical
# Conditions: buffer
row,Structure (SMILES),logD
1,CC(C)(C)[C@H](NC(=O)n1c(=O)n(CCC2CCOCC2)c2ccccc21)C(N)=O,2.4
2,CC(C)(C)[C@H](NC(=O)n1c(=O)n(CC2CCCO2)c2ccccc21)C(N)=O (stereo not given in full),2.1
3,CC(C)(C)[C@H](NC(=O)n1c(=O)n(CCC2(O)CCOCC2)c2ccccc21)C(N)=O,1.9
4,CN(C)CCn1c(=O)n(C(=O)N[C@H](C(N)=O)C(C)(C)C)c2ccccc21,1.5
5,CC(C)(O)CCn1c(=O)n(C(=O)N[C@H](C(N)=O)C(C)(C)C)c2ccccc21,2.2
6,CC(C)(C)[C@H](NC(=O)n1c(=O)n(CC2(O)CCOCC2)c2ccccc21)C(N)=O,1.6
7,CC(C)(O)Cn1c(=O)n(C(=O)N[C@H](C(N)=O)C(C)(C)C)c2ccccc21,2.2
8,CC(C)(C)[C@H](NC(=O)n1c(=O)n(CCN2CCCC2)c2ccccc21)C(N)=O,1.5
9,CC(C)CCn1c(=O)n(C(=O)N[C@H](C(N)=O)C(C)(C)C)c2ccccc21,3.4
